Measured values as given in US10195204B2, “Methods of treating hemoglobinopathies” (DUKE UNIVERSITY, priority 2011, dated 2019).

How the values were obtained:
Type in all cases: cell-based, human
[1] = tested on: SS RBC adhesion to HUVECs; experiment: Flow chamber adhesion of SS RBCs to non-activated HUVECs; conditions: for mean decrease in SS RBC adhesion after 30 min exposure: 30 min vs 1 min epinephrine
Protocol: Cells were then washed three times with 5 ml PBS with Ca^2+ and Mg^2+. Prior to adhesion assays, washed treated SS RBCs were labeled with PKH 26 red fluorescent cell linker kit (Sigma-Aldrich, St. Louis, Mo.), following the manufacturer's instructions. […] The flow chamber was mounted on the stage of an inverted phase contrast microscope (Diaphot, Nikon Inc., Melville, N.Y.) connected to a thermoplate (Tokai Hit Co., Ltd., Japan) set at 37° C. […] Before exposure to flow, a minimum of three fields at each of seven different locations along a line oriented normal to future flow were examined for the total number of fluorescent cells. Fluid flow (HBSS with Ca^2+, Mg^2+) was then started using a calibrated syringe pump. After exposure to flow, the fields were again examined and the number of adherent cells counted. The fraction of adherent cells was presented as (number of cells attached after exposure to flow)/(cells present per field before flow). The wall shear stress was calculated as: [formula] τw=wall shear stress (dyne/cm^2); Q=volumetric flow rate (cm^3/s); μ is media viscosity, w is the width of the flow channel, and H(x) is the height of the flow chamber as a function of position along the microscope slide. Several investigators have shown that blood flow in small vessels may be continuous, with shear stresses of 1-2 dynes/cm^2, or flow may be intermittent. Our data were obtained using both intermittent and continuous flow conditions.

[2] = tested on: SS RBC membrane ghost phosphopeptides; experiment: Label-free quantitative phosphoproteomic analysis of SS RBC membrane ghosts
Protocol: Ghosted RBCs were spun at 14,000 rpm for 15 min at 4° C. to pellet membranes. Membrane pellets were washed with 1 mL 50 mM ammonium bicarbonate (pH 8.0) with vortexing and were then spun at 14,000 rpm for 30 min at 4° C. The supernatant was then removed and 500 μL of 50 mM ammonium bicarbonate with μL 0.2% acid-labile surfactant (ALS-1) in 50 mM ammonium bicarbonate (pH 8.0) was added. Samples were subjected to probe sonication three-times for 5 sec with cooling on ice between and insoluble material was cleared by centrifugation at 14,000 rpm for 30 mins at 4° C. Samples were normalized to approximately 2 μg/μl following a micro-Bradford assay (Pierce Bioscience), and were reduced with a final concentration of 10 mM dithiothreitol at 80° C. for 20 min. Samples were then alkylated with a final concentration of 20 mM iodoacetamide at room temperature for 45 min and trypsin was added to a final ratio of 1-to-50 (w/w) enzyme-to-protein and allowed to digest at 37° C. for 18 hr. To remove ALS-1, samples were acidified to pH 2.0 with neat TFA, incubated at 60° C. for 2 hrs and spun at 14,000 rpm to remove hydrolyzed ALS-1. Samples were either subjected directly to LC-MS analysis or subjected to a TiO2 based phosphopeptide enriched protocol.
To enrich for phosphorylated peptides prior to LC-MS analysis, either 1,125 μg and 970 μg of total digested protein from RBC ghosts co-incubated with recombinant active ERK2 experiments and experiments using epinephrine-treated cells, respectively, were brought to near dryness using vacuum centrifugation and then resuspended in 200 μL of 80% acetonitrile, 1% TFA, 50 mg/ml MassPrep Enhancer (pH 2.5) (Waters Corp. Milford, Mass.). Samples were loaded onto an in-house packed TiO2 spin column (Protea Biosciences) with a 562 μg or 485 μg binding capacity for active ERK2 treated or epinephrine treated experiments, respectively. Samples were washed twice with 200 μL 80% acetonitrile, 1% TFA, 50 mg/ml MassPrep Enhancer (pH 2.5) followed by two washes with 200 μL 80% acetonitrile, 1% TFA (pH 2.5). Retained peptides were eluted twice with 100 μL 20% acetonitrile, 5% aqueous ammonia (pH 10.0), acidified to pH 3 with neat formic acid and then brought to dryness using vacuum centrifugation. Prior to LC-MS analysis, each sample was resuspended in 20 μL 2% acetonitrile, 0.1% TFA, 25 mM citric acid (pH 2.5).
Chromatographic separation of phosphopeptide enriched or non-enriched samples was performed on a Waters NanoAquity UPLC equipped with a 1.7 μm BEH130 C1875 μm I.D.×250 mm reversed-phase column. The mobile phase consisted of (A) 0.1% formic acid in water and (B) 0.1% formic acid in acetonitrile. Five μL injections of each sample were trapped for 5 min on a 5 μm Symmetry C18 180 μm I.D.×20 mm column at 20 μl/min in 99.9% A. The analytical column was then switched in-line and the mobile phase was held for 5 min at 5% B before applying a linear elution gradient of 5% B to 40% B or 5% B to 30% B over 90 min at 300 nL/min for ERK2 treated experiments or epinephrine treated experiments, respectively. The analytical column was connected to fused silica PicoTip emitter (New Objective, Cambridge, Mass.) with a 10 μm tip orifice and coupled to the mass spectrometer through an electrospray interface.
MS data from each phosphopeptide enriched sample was acquired on a Thermo LTQ-Orbitrap XL mass spectrometer operating in positive-ion mode with an electrospray voltage of 2.0 kV with real-time lockmass correction on ambiant polycyclodimethylsiloxane (m/z 445.120025) enabled. The instrument was set to acquire a precursor MS scan from m/z 400-2000 with r=60,000 at m/z 400 and a target AGC setting of 1e6 ions. Each sample was analyzed four-times, one of which was used for additional qualitative identifications only and was not included in the quantitative analysis, with product ions above a threshold of 500 counts were acquired for the top 5 most intense ions in the linear ion trap. […]

[3] = tested on: ICAM-4 (LW) phosphorylation; experiment: 32P labeling, ICAM-4 immunoprecipitation and detection of phosphorylation in SS RBCs
Protocol: Cells were then washed 4 times. ICAM-4 protein immunoprecipitation, and total and phospho-ICAM-4 detection were performed as previously described in detail.^4 To further confirm that the immunoprecipitates were specific for ICAM-4, anti-ICAM-4 mAb and the negative control immunoglobulin P3 were used to immunoprecipitate ICAM-4 from non-radiolabeled SS RBCs incubated in the presence or absence of epinephrine. Blots were then immunostained with anti-ICAM-4 mAb.

[4] = shear stress 2 dynes/cm^2, intermittent flow
[5] = SS RBCs, epinephrine 30 min vs 1 min
[6] = SS RBCs vs SS RBCs treated with U0126

SMILES	mean decrease in SS RBC adhesion after 30 min exposure ([1]; constant flow)	mean decrease in SS RBC adhesion after 30 min exposure ([1]; intermittent flow)	effect on SS RBC adhesion to HUVECs [1, 4]	change in phosphorylation of serine 310 within CAP1 [2, 5]	change in phosphorylation of threonine 307 within CAP1 [2, 5]	ICAM-4 phosphorylation over sham-treated cells ([3]; epinephrine 1 min in the presence of SPI (FIG. 4F))	ICAM-4 phosphorylation vs 1 min exposure ([3]; epinephrine 30 min in the presence of SPI)	increase in ICAM-4 phosphorylation over sham-treated SS RBCs ([3]; epinephrine in the presence of SPI)	inhibition of SS RBC adhesion to non-activated HUVECs vs sham-treated SS RBCs ([1]; U0126 alone)	inhibition of forskolin-increased SS RBC adhesion to HUVECs ([1]; shear stress 2 dynes/cm^2, compared to forskolin alone)	effect on epinephrine-induced SS RBC adhesion to HUVECs [1, 4]	change of Ser540/Ser542 doubly phosphorylated peptide within protein 4.1 ([2]; SS RBCs treated with U0126)	unique RBC membrane phosphopeptides significantly down-regulated [2, 6]	unique phosphoproteins carrying the down-regulated phosphopeptides [2, 6]	effect on combined effect of epinephrine and SPI on ICAM-4 phosphorylation ([3]; SS RBCs preincubated with inhibitor)
CNC[C@H](O)c1ccc(O)c(O)c1 [epinephrine]	73±4.7%	56±1.5%	significantly up-regulated	−4.3 fold	−1.4 fold	1.84±0.15 fold	significantly diminished	7.4±1.07 fold	–	–	–	–	–	–	–
N#CC(=C(/N)Sc1ccccc1N)/C(C#N)=C(\N)Sc1ccccc1N [U0126]	–	–	–	–	–	–	–	–	91±4.6%	83±4%	completely inhibited	−1.7 fold	36	22	significantly decreased
